Measured values reported in publication PMC9332833 (Cancers, 2022).

Columns and labels:
[1] = test system: CD34+/CD38- leukemia stem cells from CML patients; assay: Annexin V-FITC/PI apoptosis in CD34+/CD38- subpopulation; assay type: cell-based, human; settings: 2.5 or 5 µM, within 24 h, 3 patients; dose dependent
Experimental: Pre-cultured cells were treated with BK124.1 or DMSO for 24 h. For purity analysis, cells were stained with anti-human CD34-APC antibody, anti-human CD38-PE (Biolegend, San Diego, CA, USA), and propidium iodide according to the manufacturers’ protocols. For apoptosis analysis, cells were additionally stained with Annexin V-FITC kit (BD, Franklin Lakes, NJ, USA) according to the manufacturer’s protocol. Appropriate isotype controls were included. Stained cells were immediately analyzed on a BD LSRFortessa flow cytometer with FlowJo software (BD, Franklin Lakes, NJ, USA), after exclusion of doublets. Purity was analyzed on live cells only, and apoptosis separately for each population of cells (CD34^+/CD38^+ or CD34^+/CD38^−).
[…] Next, we isolated CD34+ cells (EasySep™ Human CD34 Positive Selection Kit II, StemCell Technologies, Vancouver, Canada), counted them and assessed viability with Muse Cell Analyzer (Merck Millipore, Burlington, MA, USA). […] The purity of the live CD34+ fraction was assessed by flow cytometry with anti-human CD34-APC antibody, compared with an appropriate isotype control (Biolegend, San Diego, CA, USA), and propidium iodide (Sigma-Aldrich, St. Louis, MO, USA). […]
[…] In both cases stained cells were immediately analyzed on a BD LSRFortessa flow cytometer and analyzed with FlowJo software (BD, Franklin Lakes, NJ, USA). […]

[2] = Blood morphology in K562 xenograft mice; settings: for GRA / MON / HGB / WBC / MPV / RBC / RDW / MCH / MCHC / HCT / MCV / LYMP: N=4; for GRA / MON / LYMP: standard range 0.0-99.0; for HGB: standard range 1.1-18; for WBC: standard range 3.0-15; for MPV: standard range 4.6-7.3; for RBC: standard range 5.0-12; for RDW: standard range 11.5-14.5; for MCH: standard range 12-24.5; for MCHC: standard range 21.6-42; for HCT: standard range 36-52; for MCV: standard range 44-69
Experimental: Eight-week-old female NOD.Cg-Prkdcscid Il2rgtm1Wjl/SzJ NSG mice (Jackson Laboratory, Bar Harbor, ME, USA) were injected subcutaneously into the dorsal fold with 1 × 10^6 K562 cells of the human chronic myeloid leukemia (CML) line in a final volume of 100 µL (0.5% of the mouse weight). On day 3 after cell administration, mice were randomly assigned to each group, and on days 4–17 of the experiment, the selected tested compounds and control solutions were administered intraperitoneally or orally. During the experiment, subcutaneous tumors and body weight were measured daily. Tumor growth during the experiment was measured with an electronic display caliper. The theoretical tumor volume [mm], was calculated according to the formula (a^2 × b) * 0.5, where a is the shorter tumor axis [mm] and b is the longer tumor axis [mm]. On day 26, the experiment was terminated: blood was collected and analyzed for cellular morphology and standard biochemistry metabolites. Tumors were weighed.
Control and treated mice were grouped according to the tested compounds and the scheme of their administrations (doses, administration frequencies, routes of administration) in the CML xenogeneic model obtained by subcutaneous transplantation of 1 × 10^6 cells of the human CML blast line K562 into mice NOD.Cg-Prkdcscid Il2rgtm1Wjl/SzJ (NSG).
Hydroxyurea K562 500 mg/kg, IP Aqua pro 1 x daily 8

[3] = Pharmacokinetics in Wistar rats; assay type: in vivo, Wistar rat
Experimental: Five Wistar rats were injected intravenously (IV) with BK124.1 at 5 mg/kg or 10 mg/kg concentration, in 10% Solutol HS15/10% ethanol. The blood was taken from each animal after 5, 15, and 30 min, 1, 2, 6, and 24 h post-injection. Blood BK124.1 concentration was measured using mass spectrometry.

[4] = 20 mg/kg IP daily 14 days, mean ± SD
[5] = 30 mg/kg IP daily 14 days, mean ± SD
[6] = 30 mg/kg IP daily 14 days, mean

CCC12C(=O)C(CC)(C(c3ccccc3)=C1c1ccccc1)C1C(=O)N(CC(O)CNC(C)C)C(=O)C12 (stereo not shown) [BK124.1, 4-[2-hydroxy-3-(propan-2-ylamino)propyl]-1,7-diethyl-8,9-diphenyl-4-azatricyclo [5.2.1.02,6]dec-8-ene-3,5,10-trione]
Apoptosis in CD34+/CD38- leukemia stem cells [1]: induced apoptosis | GRA [2, 4]: 39.3±9.8% | MON [2, 4]: 17.8±2.8% | HGB [2, 4]: 12.3 ± 0.7 g/dL | WBC [2, 4]: 14.9±4.7 103/μL | MPV [2, 4]: 5.0±0.2 μm3 | RBC [2, 4]: 7.1±0.4 106/μL | RDW [2, 4]: 13.1±0.4% | MCH [2, 4]: 17.3 ± 0.3 pg | MCHC [2, 4]: 32.4 ± 0.3 g/dL | HCT [2, 4]: 38.0±2.3% | MCV [2, 4]: 53.3±0.5 | LYMP ([2]; 20 mg/kg IP daily 14 days, mean): 42.9% | MON [2, 5]: 15.4±3.8% | HGB [2, 5]: 13.5 ± 0.5 g/dL | WBC [2, 5]: 10.5±5.0 103/μL | MPV [2, 5]: 5.1±0.2 μm3 | RBC [2, 5]: 7.9±0.2 106/μL | RDW [2, 5]: 12.9±0.1% | MCH [2, 5]: 17.2 ± 0.4 pg | MCHC [2, 5]: 32.4 ± 0.6 g/dL | HCT [2, 5]: 41.7±0.9% | MCV [2, 5]: 52.8±1.0 | GRA [2, 6]: 43.1% | LYMP [2, 6]: 41.6% | Blood morphology parameters ([2]; doses as in Table S3): within the norm | Time BK124.1 remains detectable in the peripheral blood ([3]; IV 10 mg/kg (Figure 1A)): 24 h | half-life ([3]; Wistar, rat, IV 10 mg/kg, blood): 4.39 h
